In US7932384B2, “Reverse-turn mimetics and method relating thereto” (Choongwae Pharma Corporation, priority 2001, dated 2011):

Legend:
survivin promoter = assay: Survivin luciferase reporter in SW480 cells; assay type: cell-based; settings: SW480 cells, various concentrations
HCT116 cells = assay: Flow cytometric analysis (FACS) of cell cycle, HCT116; assay type: cell-based; settings: HCT116, 25 μM, 24 hours
Protocol: For FACS analysis, approx. 5×10^6 cells from Compound D-treated or vehicle-treated were fixed with 70% chilled ethanol and stored at −20° C. for at least 30 minutes. The cells were washed once with 1×PBS and incubated with propidium iodine (PI) solution (85 μg/ml propidium iodine, 0.1% Nonidet P-40, 10 mg/ml RNAse) for 30 minutes at room temperature. 10,000 stained cells for each sample were acquired using Beckman Coulter EPICS XL-MCL Flow Cytometry and the percentage of cells in different phase of the cell cycle was determined by Expo32 ADC software (Coulter Corporation, Miami, Fla., 33196).
It has been shown that inhibition of the expression of the cyclin D1 gene causes arrest at the G1/S-phase of the cell cycle (Shintani et al., “Infrequent alternations of RB pathway (Rb-p16INK4A-cyclin D1) in adenoid cystic carcinoma of salivary glands,” Anticancer Res. 20:2169-75 (2000)). […] The cells were subsequently stained with propidium iodide (PI) and analyzed for DNA content by FACS cytofluorometry.

[1] = system: Ephrin B2 (EphB2) receptor; assay: EphB2 receptor expression (immunofluorescence and RT-PCR) in PC-12 PS-1/L286V cells; assay type: cell-based, Rat; settings: PS-1/L286V mutant PC-12 cells, 10 μM
Protocol: Immunofluorescence. Cells were plated at a density of 10,000 cells/cm^2 on sterile coated 22×22 mm coverslips in a 6-well culture plate. Differentiation was initiated, as previously described, for 10 days. The differentiated cells were then fixed in methanol for 15 minutes at −20° C. This is followed by a 15 minutes incubation with PBS+0.1% Triton X-100. The coverslips were incubated with antibodies raised against Ephrin B2 Receptor (Santa Cruz Biotechnology) and Gap-43 (Novus Biologicals) for 40 minutes at 37° C. After a series of washes with PBS-Triton X-100, secondary antibody conjugated to FITC (Jackson ImmunoResearch, Westgrove, Pa.) was applied. All slides images were acquired using a Nikon PCM2000 Laser Scanning Confocal Microscope mounted on a Nikon Eclipse E600 upright microscope (Nikon, Melville, N.Y.).
RT-PCR. To analyze the mRNA levels for Ephrin B2 (EphB2) receptor, total RNA was isolated using Trizol (Invitrogen-GIBCO-BRL, Baltimore, Md.) from differentiated cells. 2 μg RNA was reverse transcribed in a total volume of 20 μl with random hexamer (50 ng), and using the Superscript II reverse transcription system (Invitrogen-GIBCO-BRL), according to manufacturer's guidelines. PCR was carried out in a 50 μl volume containing 5 μl cDNA, 100 pmol primers, 100 μM dNTPs, 1×Taq buffer and 1.5 mM MgCl2. […]

GADPH = assay: Real time RT-PCR gene expression, GADPH; assay type: cell-based; settings: 25 μM, 24 hours; <0.5 significant decrease, >1.5 significant increase
Protocol: (§1) Real time reverse transcription-PCR analysis was performed according to the protocol provided with the SYBR Green PCR Master Mix Kit (Perkin Elmer Biosystems, Shelton, ST). […] The primers used for the RT-PCR reactions were [NT] and [NT].

survivin = assay: Real time RT-PCR gene expression, Survivin; assay type: cell-based; settings: 25 μM, 24 hours; <0.5 significant decrease, >1.5 significant increase
Protocol: as §1

GADD-153 = assay: Real time RT-PCR gene expression, GADD-153; assay type: cell-based; settings: 25 μM, 24 hours; <0.5 significant decrease, >1.5 significant increase
Protocol: as §1

caspase 3 = assay: Caspase 3 activity in cultured tumor cells; assay type: cell-based; settings: 2.5 μM or 5.0 μM
surviving promoter = assay: Survivin promoter luciferase reporter in wild type, CBP+/−, p300+/− 3T3 cells; assay type: cell-based; settings: with or without Wnt1
From the text: A plasmid containing luciferase under the control of surviving promoter was constructed and transfected into wild type, CBP+/−, or p300+/−3T3 cells.

HLAC = assay: Real time RT-PCR gene expression, HLAC; assay type: cell-based; settings: 25 μM, 24 hours; <0.5 significant decrease, >1.5 significant increase
Protocol: as §1

PCNA = assay: Real time RT-PCR gene expression, PCNA; assay type: cell-based; settings: 25 μM, 24 hours; <0.5 significant decrease, >1.5 significant increase
Protocol: as §1

SW480 cells = assay: Soft agar colony formation assay; assay type: cell-based; settings: SW480, 0.25-5 μM
Protocol: The soft agar colony formation assay was conducted with SW480 cells by some modification of the procedure previously described (Moody et al., “A vasoactive intestinal peptide antagonist inhibits non-small cell lung cancer growth,” Proc. Natl. Acad. Sci. USA. 90:4345-49 (1993)).
Each well (35 mm) of a 6-well plate (Nalge Nunc International, Roskide, Denmark) was coated with 1 ml of 0.8% bottom agar in DMEM medium containing 10% fetal bovine serum. After it was solidified, 1 ml of DMEM medium containing 0.4% top agar, 10% fetal bovine serum, compound doubly concentrated, and 5,000 single viable cells was added to each well. The cultures were incubated at 37° C. in humidified 5% CO2 incubator. Colonies in soft agar were monitored daily and photographed after incubation for 8 days. Colonies>60 μm in diameter were counted.

Antigen KI-67 = assay: Real time RT-PCR gene expression, Antigen KI-67; assay type: cell-based; settings: 25 μM, 24 hours; <0.5 significant decrease, >1.5 significant increase
Protocol: as §1

surviving protein = assay: Survivin immunofluorescence microscopy in SW480 cells; assay type: cell-based
cultured tumor cells = assay: Cell death of cultured tumor cells; assay type: cell-based; settings: 5.0 μM

## O=C1[C@H](Cc2ccc(O)cc2)N2C(=O)CCN(C(=O)NCc3ccccc3)[C@H]2CN1Cc1cccc2ccccc12 [Compound D]
Survivin promoter
  survivin expression (luciferase reporter): inhibit expression of surviving in SW480 cells
HCT116 cells
  cell cycle distribution (FACS, PI): increased accumulation at G1/S-phase of the cell cycle
[1]
  EphB2 message (RT-PCR): increased EphB2 message
GADPH
  Ratio (Treated/DMSO Control) GADPH: 0.98
survivin
  Ratio (Treated/DMSO Control) Survivin: 0.30
GADD-153
  Ratio (Treated/DMSO Control) GADD-153: 7.00
Caspase 3
  caspase 3 activity: activated the caspase 3 activity
Surviving promoter
  survivin gene expression (promoter luciferase): reduces expression of the surviving gene
HLAC
  Ratio (Treated/DMSO Control) HLAC: 1.01
PCNA
  Ratio (Treated/DMSO Control) PCNA: 0.33
SW480 cells
  number of colonies formed in soft agar: dose dependent decrease in the number of colonies formed
Antigen KI-67
  Ratio (Treated/DMSO Control) Antigen KI-67: 0.45
Surviving protein
  survivin protein (immunofluorescence microscopy): little or no surviving protein was detected
Cultured tumor cells
  cell death: promote cell death
